How the values were obtained:
[1] = target: T1, SIRT2 (Homo sapiens, UniProt Q8IXJ6); assay: In vitro biochemical activity assay, SIRT2; settings: 10-dose, 3-fold serial dilution; fluorogenic peptide p53 residues 379-382 and NAD
T1 construct: purchased Reaction Biology (Malvern, PA)
T1 sequence (Q8IXJ6 1-389): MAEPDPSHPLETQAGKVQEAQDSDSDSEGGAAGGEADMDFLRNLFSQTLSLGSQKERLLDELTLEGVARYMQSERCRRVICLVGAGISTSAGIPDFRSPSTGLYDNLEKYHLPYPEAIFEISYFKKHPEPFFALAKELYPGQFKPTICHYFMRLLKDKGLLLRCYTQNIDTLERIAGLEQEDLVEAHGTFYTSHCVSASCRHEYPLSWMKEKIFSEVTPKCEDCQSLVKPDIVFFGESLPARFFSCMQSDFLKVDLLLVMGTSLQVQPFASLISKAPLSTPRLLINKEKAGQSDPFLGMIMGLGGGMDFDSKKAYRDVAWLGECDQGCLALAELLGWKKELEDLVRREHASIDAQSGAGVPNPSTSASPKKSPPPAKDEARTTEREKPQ

[2] = system: proteasome ChT-like activity in RPMI-8226 cells; assay: Cell-based high-throughput screen of proteasome ChT-like activity (LLVY-R110); set-up: species or system human; settings: 3 µmol/L, 21 hours, then LLVY-R110 18 hours
[3] = system: E.G7-Ova cells; assay: Quantitation of […]–MHC-I complex by flow cytometry; assay type: cell-based, mouse
[4] = system: RPMI-8226 cells; assay: Myeloma MHC-I immunopeptidome analysis by MS; assay type: cell-based, human; settings: BTZ, 18 hours
[5] = system: RPMI8226 cells; assay: Aggresome formation (Proteostat kit, flow cytometry); assay type: cell-based, human; settings: 16 h
[6] = system: RPMI8226 cells; assay: Autophagosome formation (Cyto-ID kit, flow cytometry); assay type: cell-based, human; settings: 16 h

IC50 [1]	Structure (SMILES)	Fold-Decrease of proteasome ChT-like activity in the HTS [2]	SIINFEKL–MHC-I complex presentation (in words) [3]	global peak intensity of peptides (in words) [4]	number of peptides decreased by at least 20-fold [4]	number of peptides with 2-fold or greater decrease [4]	formation of aggresomes [5]	formation of autophagosomes [6]
24.3 µM	Cc1ccc(C(=O)Nc2ccc(S(=O)(=O)O)c3cc(S(=O)(=O)O)cc(S(=O)(=O)O)c23)cc1NC(=O)c1cccc(NC(=O)Nc2cccc(C(=O)Nc3cc(C(=O)Nc4ccc(S(=O)(=O)O)c5cc(S(=O)(=O)O)cc(S(=O)(=O)O)c45)ccc3C)c2)c1 [Suramin]							
	CC(C)C[C@H](NC(=O)[C@H](Cc1ccccc1)NC(=O)c1cnccn1)B(O)O [Bortezomib]	4 fold	reduced	slightly decreased	seven	1,707 peptides	increased	increased
